The results in this text go back to article PMC12655758, “Identification of KKL-35 as a Novel Carnosine Dipeptidase 2 (CNDP2) Inhibitor by In Silico Screening” (Molecules, 2025).

What all share (type): biochemical
Assay [1] concerns the target T1, Carnosine dipeptidase 2 (CNDP2) (Mus musculus, UniProt Q9D1A2).
T1 sequence (Q9D1A2 1-475): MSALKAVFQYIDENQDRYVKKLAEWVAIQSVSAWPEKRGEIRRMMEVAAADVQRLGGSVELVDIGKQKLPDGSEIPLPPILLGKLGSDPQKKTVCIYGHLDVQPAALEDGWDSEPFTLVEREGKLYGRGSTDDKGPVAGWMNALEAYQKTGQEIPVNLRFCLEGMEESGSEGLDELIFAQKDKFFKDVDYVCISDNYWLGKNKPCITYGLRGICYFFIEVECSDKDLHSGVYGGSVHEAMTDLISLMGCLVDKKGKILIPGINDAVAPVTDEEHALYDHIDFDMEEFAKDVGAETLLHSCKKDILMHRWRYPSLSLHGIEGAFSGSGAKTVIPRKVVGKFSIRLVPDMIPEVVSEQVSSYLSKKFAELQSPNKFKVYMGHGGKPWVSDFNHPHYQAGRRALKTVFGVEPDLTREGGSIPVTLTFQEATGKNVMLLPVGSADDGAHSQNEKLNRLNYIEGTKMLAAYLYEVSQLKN
Nature of the assay: LC-MS assay of Cys-Gly hydrolysis by purified CNDP2 (Cys-NEM readout; IC50 […] by Gly).

Assay [2] has as its target T1, Carnosine dipeptidase 2 (CNDP2). Briefly: LC-MS detection of Cys-NEM and Gly products from Cys-Gly ([…]) hydrolysed by purified CNDP2.
Assay [3] shares this target. Nature of the assay: LC-MS assay of Cys-Gly hydrolysis by purified CNDP2 (Cys-NEM readout; IC50 […] by Gly). This is another data set of the same source.

Like-named read-outs stand apart in the source and are kept apart here.

As usually defined, the IC50 is the concentration that inhibits the measured activity by half. Compound `O=C(Nc1nnc(-c2ccc(F)cc2)o1)c1ccc(Cl)cc1` [KKL-35] showed an IC50 in assay [1] of 118 µM. Regarding `N[C@@H](CS)C(=O)NCC(=O)O` [Cys-Gly], in assay [2], the “LC-MS detection of Cys-NEM and Gly products from Cys-Gly (5 mM) hydrolysed by pu” value is “Cys-Gly was hydrolyzed by CNDP2 to produce cysteine (Cys) and glycine (Gly)”.

In assay [3], `CC(C)C[C@H](NC(=O)[C@@H](O)[C@H](N)Cc1ccccc1)C(=O)O` [Bestatin] yielded an IC50 of 1 µM. In other words, the single-digit micromolar range.
